Assay results taken from patent US20080175902A1, “Methods for slowing the progression of multiple sclerosis” (University of Plymouth, priority 2006, published 2008).

Key:
[1] = test system: patients with multiple sclerosis; assay: Patient assessment of treatment benefit at visit 8; type: in vivo, human; conditions: patient assessment at visit 8
Excerpt: At visit 8 in the study described in Examples 1 and 2, patients were asked uestions about whether treatment had improved pain, tremor, spasticity, or ymptoms. […] Overall, more patients perceived an improvement in spasticity and pain when taking the active treatments than when taking placebo. Difference in perception of improvement in tremor was not statistically significant and no treatment effect on bladder symptoms was identified. Although there was no stratification for these specific symptoms between groups, the groups were broadly balanced for these symptoms apart from bladder symptoms, where there were fewer patients with urinary symptoms in the group taking, delta-9-THC.

[2] = test system: patients with multiple sclerosis; assay: Serious adverse events (hospital admissions), 52 week follow up; type: in vivo, human
Excerpt: During this study, all hospital admissions were classed as serious adverse events.

[3] = test system: patients with multiple sclerosis; assay: Category-rating scales of symptoms, 15 week study; type: in vivo, human; conditions: category rating vs before study start
Description: (§1) Secondary outcomes were also measured in the above-described study. Such secondary outcomes included the Rivermead mobility index (See e.g. Collen, F. M. et al., The Rivermead mobility index: a further development of the Rivermead motor assessment. Int. Disanil. Stud. 1991; 13:50 54) hereby incorporated by reference in its entirety, a timed 10 meter walk, four self completion questionnaires—the United Kingdom neurological disability score (See e.g. Sharrack, B., Hughes R. A., The Guy's neurological disability scale (GNDS): a new disability measure for multiple sclerosis. Mult. Sder. 1999; 5: 223-33), and a series of nine category-rating scales. For the category-rating scale assessment, patients were asked to assess how their symptoms had been over the previous week compared with how they were just before the study started. Categories included irritability, depression, tiredness, muscle stiffness, tremor, pain, sleep, muscle spasms, and amount of energy.
Category rating scales were used to assess whether patients felt their symptoms had improved while on treatment relative to before start of treatment. Overall, patients felt that symptoms of pain, sleep quality, spasms, and had improved while on active treatment.

[4] = test system: patients with multiple sclerosis; assay: Ashworth score, 52 week follow up; type: in vivo, human
Excerpt: In Example 4, the study described in Examples 1-3 above was continued to determine if long-term therapy with D9-TCH or cannabis plant extract would affect the progression of MS. At the end of week 15, patients were offered the opportunity to resume medication at the previously determined dose for a maximum of 52 weeks. If patients decided not to continue medication, the reasons for non-continuance were documented. Throughout the study, capsule compliance was checked at clinic visits by counting the number of capsules returned. Urine samples for cannabinoid analysis were collected at each clinic visit during the follow up phase in order to evaluate potential cannabis use in the placebo group.
(§2) In order to reduce the potential for unmasking bias from treatment side effects, two study personnel were used at each centre. A treating physician monitored the dosage, side effects, and patient wellbeing, while an assessor (usually a physiotherapist) measured the Ashworth score, timed 10 metre walk, and Rivermead Mobility Index (RMI). […] Assessors remained blinded to any discussion of dosage or side effects, and when evaluating patients' spasticity, were instructed not to have access to their assessment scores from previous visits. Self completion booklets containing the General Health Questionnaire-30 (GHQ-30), category rating scales (asking patients to assess any change in their symptoms at that point in the study compared with how they were before they started medication, and measuring irritability, depression, tiredness, muscle stiffness, tremor, pain, sleep, muscle spasms, and energy levels), the UK Neurological Disability Scale (UKNDS), and the Barthel Index (BI) were sent to participants just prior to week 27 and week 52. The Expanded Disability Status Scale (EDSS) was used at week 52.
As set forth in FIG. 5, 95% Confidence intervals for differences in means (active minus placebo) of changes in total Ashworth score at each visit are shown. […] For these patients, their last Ashworth score (visit 10) was carried forward as their final measured response. […]

[5] = test system: patients with multiple sclerosis; assay: Rivermead Mobility Index (RMI), 52 week follow up; type: in vivo, human; conditions: FIG. 6
Excerpt: (§3) In order to reduce the potential for unmasking bias from treatment side effects, two study personnel were used at each centre. A treating physician monitored the dosage, side effects, and patient wellbeing, while an assessor (usually a physiotherapist) measured the Ashworth score, timed 10 metre walk, and Rivermead Mobility Index (RMI). […] Assessors remained blinded to any discussion of dosage or side effects, and when evaluating patients' spasticity, were instructed not to have access to their assessment scores from previous visits. […]
(§4) Times taken to complete a 10 metre walk were analysed using the Kruskal-Wallis test, and non-parametric methods were used to produce confidence intervals for the median. The RMI, UKNDS, postal BI, and GHQ-30 were each analysed using non-parametric analysis of variance to compare the groups. EDSS scores were analysed using Fisher's exact test. Category rating scales were analysed using contingency table analysis. […]

[6] = test system: patients with multiple sclerosis with problematic spasticity; assay: Ashworth score of spasticity, randomized placebo-controlled 15 week study; type: in vivo, human; conditions: baseline to 13 weeks follow-up
[7] = test system: patients with multiple sclerosis; assay: Timed 10 metre walk / ability to walk, 52 week follow up; type: in vivo, human; conditions: end of 52 week study
Excerpt: as §3, §4

[8] = test system: patients with multiple sclerosis; assay: Timed 10 meter walk, 15 week study; type: in vivo, human
Description: as §1
With respect to secondary outcome measures, 322 patients provided at least one baseline walk time. Of these, seven (1 cannabis extract, 3 delta-9-THC, 3 placebo) dropped out of the trial. Walk times were obtained from 278 patients at visit seven. In total, 20 patients were unable to walk (8 cannabis extract, 5 delta-9-THC, 7 placebo) and very large walk times were substituted for these individuals.

patients with MS = conditions: 4 week period, oral; cited from earlier work
[9] = test system: patients with multiple sclerosis; assay: Category rating scales, 52 week follow up; type: in vivo, human; conditions: category rating scale, 52 week follow up study
Excerpt: as §2
Times taken to complete a 10 metre walk were analysed using the Kruskal-Wallis test, and non-parametric methods were used to produce confidence intervals for the median. The RMI, UKNDS, postal BI, and GHQ-30 were each analysed using non-parametric analysis of variance to compare the groups. EDSS scores were analysed using Fisher's exact test. Category rating scales were analysed using contingency table analysis. Comparison was made between patients choosing to continue on medication and those who chose to discontinue, by baseline Ashworth scores, RMI, EDSS, age, weight, ambulatory status, type of disease, sex, and use of urinary catheter. No adjustments were made for multiple comparisons.

[10] = test system: patients with multiple sclerosis; assay: Adverse events reported by patients, 15 week study
[11] = test system: multiple sclerosis patients; conditions: 15 week trial; cited from earlier work

## CCCCCc1cc(O)c2c(c1)OC(C)(C)[C@@H]1CCC(C)=C[C@@H]21 (relative stereo) [delta-9-THC, Delta-9-Tetrahydrocannabinol]
[1]
  Bladder symptom improvement: No, % of patients: 59%
  Bladder symptom improvement: No, number of patients: 97
  Bladder symptom improvement: Yes, % of patients: 40%
  Bladder symptom improvement: Yes, number of patients: 67
  Pain improvement: No, % of patients: 50%
  Pain improvement: No, number of patients: 64
  Pain improvement: Yes, % of patients: 50%
  Pain improvement: Yes, number of patients: 64
  Spasticity improvement: No, % of patients: 40%
  Spasticity improvement: No, number of patients: 73
  Spasticity improvement: Yes, % of patients: 60%
  Spasticity improvement: Yes, number of patients: 108
  Tremor improvement: No, % of patients: 60%
  Tremor improvement: No, number of patients: 67
  Tremor improvement: Yes, % of patients: 40%
  Tremor improvement: Yes, number of patients: 44
[2]; 52 week follow up, all hospital admissions
  serious adverse events reported (total number): 24
[2]; CM
  Serious adverse event: Insertion of baclofen pump (frequency): 0
  Serious adverse event: Limb fracture (frequency): 0
  Serious adverse event: Other (frequency): 8
  Serious adverse event: Pneumonia/chest infection (frequency): 1
  Serious adverse event: Relapse/possible relapse (frequency): 8
  Serious adverse event: Seizure (frequency): 0
  Serious adverse event: Urinary tract infection (frequency): 3
  Serious adverse events: No. of events: 20
  Serious adverse events: no. of patients: 18
[2]; DM
  Serious adverse event: Insertion of baclofen pump (frequency): 0
  Serious adverse event: Limb fracture (frequency): 0
  Serious adverse event: Other (frequency): 2
  Serious adverse event: Pneumonia/chest infection (frequency): 0
  Serious adverse event: Relapse/possible relapse (frequency): 2
  Serious adverse event: Seizure (frequency): 0
  Serious adverse event: Urinary tract infection (frequency): 0
  Serious adverse events: No. of events: 4 (4)
  Serious adverse events: no. of patients: 4 (4)
[3]
  Depression: Deterioration, % of patients: (34%)
  Depression: Deterioration, number of patients: 42
  Depression: Improvement, % of patients: (29%)
  Depression: Improvement, number of patients: 36
  Depression: Same, % of patients: (38%)
  Depression: Same, number of patients: 47
  Energy: Deterioration, % of patients: (28%)
  Energy: Deterioration, number of patients: 49
  Energy: Improvement, % of patients: (35%)
  Energy: Improvement, number of patients: 61
  Energy: Same, % of patients: (36%)
  Energy: Same, number of patients: 63
  Irritability: Deterioration, % of patients: (29%)
  Irritability: Deterioration, number of patients: 32
  Irritability: Improvement, % of patients: (33%)
  Irritability: Improvement, number of patients: 37
  Irritability: Same, % of patients: (38%)
  Irritability: Same, number of patients: 42
  Pain: Deterioration, % of patients: (17%)
  Pain: Deterioration, number of patients: 22
  Pain: Improvement, % of patients: (50%)
  Pain: Improvement, number of patients: 64
  Pain: Same, % of patients: (33%)
  Pain: Same, number of patients: 43
  Shake/tremor: Deterioration, % of patients: (25%)
  Shake/tremor: Deterioration, number of patients: 32
  Shake/tremor: Improvement, % of patients: (41%)
  Shake/tremor: Improvement, number of patients: 52
  Shake/tremor: Same, % of patients: (34%)
  Shake/tremor: Same, number of patients: 44
  Sleep: Deterioration, % of patients: (16%)
  Sleep: Deterioration, number of patients: 24
  Sleep: Improvement, % of patients: (47%)
  Sleep: Improvement, number of patients: 71
  Sleep: Same, % of patients: (38%)
  Sleep: Same, number of patients: 57
  Spasms: Deterioration, % of patients: (22%)
  Spasms: Deterioration, number of patients: 27
  Spasms: Improvement, % of patients: (49%)
  Spasms: Improvement, number of patients: 81
  Spasms: Same, % of patients: (29%)
  Spasms: Same, number of patients: 49
  Spasticity: Deterioration, % of patients: (27%)
  Spasticity: Deterioration, number of patients: 47
  Spasticity: Improvement, % of patients: (51%)
  Spasticity: Improvement, number of patients: 89
  Spasticity: Same, % of patients: (23%)
  Spasticity: Same, number of patients: 40
  Tiredness: Deterioration, % of patients: (48%)
  Tiredness: Deterioration, number of patients: 76
  Tiredness: Improvement, % of patients: (22%)
  Tiredness: Improvement, number of patients: 35
  Tiredness: Same, % of patients: (29%)
  Tiredness: Same, number of patients: 46
[4]; 52 week follow up
  Mean (SD) difference in Ashworth scores from baseline to end of study: 1.82 (8.12)
  improvement on the Ashworth scale from a baseline mean of around 22: approximately 2 points
[4]; end of the 52 week treatment period
  effect on progression of MS (spasticity and disability): profound effects in slowing the progression of MS
[5]
  treatment effect on Rivermead Mobility Index: Suggestion of treatment effect
[6]
  Mean (SD) change in Ashworth score, lower-body muscle groups: 1.39 (5.21)
  Mean (SD) change in Ashworth score, upper-body muscle groups: 0.48 (4.70)
[6]; all muscle groups
  Mean (SD) change in total Ashworth score (baseline minus follow-up): 1.86 (7.95)
[7]
  proportion of patients unable to walk at the end of the study who could walk at baseline: 6%
[8]; baseline to visit 7
  reduction of median time taken to walk 10 meters from baseline to follow-up: 12%
[8]; visit 7
  patients unable to walk (number): 5
Patients with MS
  changes in Ashworth scores: no significant changes
[9]
  Depression: Deterioration, %: 17 (17) %
  Depression: Improvement, %: 26%
  Depression: Same, %: 57%
  Energy: Deterioration, %: 20%
  Energy: Improvement, %: 24%
  Energy: Same, %: 56%
  Irritability: Deterioration, %: 15 (15) %
  Irritability: Improvement, %: 30%
  Irritability: Same, %: 55%
  Pain: Deterioration, %: 16%
  Pain: Improvement, %: 28%
  Pain: Same, %: 56%
  Shaking: Deterioration, %: 19 (19) %
  Shaking: Improvement, %: 26%
  Shaking: Same, %: 55%
  Sleep: Deterioration, %: 12%
  Sleep: Improvement, %: 34%
  Sleep: Same, %: 54%
  Spasms: Deterioration, %: 25%
  Spasms: Improvement, %: 29%
  Spasms: Same, %: 46%
  Spasticity: Deterioration, %: 33%
  Spasticity: Improvement, %: 33%
  Spasticity: Same, %: 34%
  Tiredness: Deterioration, %: 21%
  Tiredness: Improvement, %: 25%
  Tiredness: Same, %: 54%
[10]
  Adverse event: Blocked/insertion of suprapubic catheter (number): 0
  Adverse event: Constipation (number): 0
  Adverse event: Grand mal seizure (number): 0
  Adverse event: MS relapse or possible relapse (number): 1
  Adverse event: Other (number): 11
  Adverse event: Pneumonia (number): 2
  Adverse event: Urinary tract infection (number): 3
[11]
  slowing of progression of MS: did not yield results indicating that cannabinoids including dronabinol slowed progression of MS
